# Measurements from DBAASP.
# Where “and” joins values, the source holds several entries; their conditions need not be identical. Identical values can stand only once.
# Legend:
# Experiment in all cases: ≥ marks a high value that may be exact or a test limit, other limits are often not marked, values filed in µg/mL are converted to µM
# [1] = test system: Acinetobacter baumannii b-03
# [2] = test system: Pseudomonas aeruginosa
# [3] = test system: Bacillus pumilus CMCC 63202
# [4] = test system: Staphylococcus aureus
# [5] = test system: Acinetobacter baumannii b-02
# [6] = test system: Escherichia coli ATCC 8099
# [7] = test system: Bacillus subtilis DB430
# [8] = test system: Micrococcus sp. S1.634
# [9] = test system: Micrococcus luteus CMCC 28001
# [10] = test system: Acinetobacter baumannii b-01
# [11] = test system: Acinetobacter baumannii b-04
# [12] = test system: Klebsiella pneumoniae CMCC 46117
# [13] = test system: Pseudomonas aeruginosa CMCC 10104
# [14] = test system: Staphylococcus aureus CMCC 26003
# [15] = test system: Salmonella enterica subsp. enterica serovar Paratyphi B CMCC 50094
# [16] = test system: Staphylococcus epidermidis
# [17] = test system: Klebsiella pneumoniae
# [18] = test system: Escherichia coli JJ2489
# [19] = test system: Escherichia coli JW0013
# [20] = test system: Escherichia coli J2210
# [21] = test system: Escherichia coli MC1041
# [22] = test system: Escherichia coli JW0368 ΔsbmA
# [23] = test system: Salmonella enterica subsp. enterica serovar Enteritidis MH91989
# [24] = test system: Salmonella enterica subsp. enterica serovar Infantis
# [25] = test system: Salmonella enterica serovar Tennessee
# [26] = test system: Salmonella typhimurium SL1344
# [27] = test system: Salmonella enterica subsp. enterica serovar Newport
# [28] = test system: Escherichia coli JW2778 ΔygdD
# [29] = test system: Escherichia coli
# [30] = test system: Acinetobacter baumannii Josh 28
# [31] = test system: Klebsiella aerogenes St. L P63
# [32] = test system: Enterobacter cloacae BB2013-32
# [33] = test system: Pseudomonas aeruginosa J4228
# [34] = test system: Enterobacter cloacae BB2012-181
# [35] = test system: Klebsiella pneumoniae J3702
# [36] = test system: Enterobacter cloacae St. L P23
# [37] = test system: Pseudomonas aeruginosa BB2013-100
# [38] = test system: Klebsiella pneumoniae Oschner KP-1
# [39] = test system: Escherichia coli BW25113
# [40] = test system: Pseudomonas aeruginosa ATCC 27853
# [41] = test system: Escherichia coli ATCC 25922
# [42] = test system: Enterobacter asburiae St. L P23
# [43] = test system: Klebsiella pneumoniae BB2009-209
# [44] = test system: Escherichia coli BB2013-30
# [45] = test system: Acinetobacter baumannii Josh 230
# [46] = test system: Escherichia coli JW55034
# [47] = test system: Escherichia coli ARLG-1012
smiles,measurement,setting,value
CC[C@H](C)[C@H](NC(=O)[C@H](Cc1ccccc1)NC(=O)[C@H](CO)NC(=O)[C@H](CCCCN)NC(=O)[C@H](Cc1c[nH]c2ccccc12)NC(=O)[C@@H](N)CCCCN)C(=O)N[C@@H](CCCCN)C(=O)N[C@@H](CCCCN)C(=O)N[C@@H](CC(C)C)C(=O)N[C@H](C(=O)N[C@@H](CCCCN)C(=O)N[C@@H](CCCCN)C(=O)N[C@@H](Cc1ccccc1)C(=O)N[C@@H](CC(C)C)C(=O)N[C@@H](Cc1cnc[nH]1)C(=O)N[C@@H](CO)C(=O)N[C@@H](C)C(=O)N[C@@H](CCCCN)C(=O)N[C@@H](CCCCN)C(=O)N[C@@H](Cc1ccccc1)C(N)=O)[C@@H](C)O [KWKSFIKKLTKKFLHSAKKF],MIC,[1],1.3 µM
same,MIC,[2],0.641 µM and 1.13 µM
same,MIC,[3],0.201 µM
same,MIC,[4],0.401 µM
same,MIC,[5],1.25 µM
same,MIC,[6],0.201 µM
same,MIC,[7],0.802 µM
same,MIC,[8],0.401 µM
same,MIC,[9],0.802 µM
same,MIC,[10],0.321 µM
same,MIC,[11],0.641 µM
same,MIC,[12],0.802 µM
same,MIC,[13],1.6 µM
same,MIC,[14],0.201 µM
same,MIC,[15],0.802 µM
same,MIC,[16],0.802 µM
same,MIC,[17],0.567 µM
CC(C)C[C@H](NC(=O)[C@H](CCCN=C(N)N)NC(=O)[C@@H]1CCCN1C(=O)[C@H](Cc1cnc[nH]1)NC(=O)[C@@H]1CCCN1C(=O)[C@@H]1CCCN1C(=O)[C@H](CCCN=C(N)N)NC(=O)[C@@H]1CCCN1C(=O)[C@H](CCC(N)=O)NC(=O)[C@@H]1CCCN1C(=O)[C@H](CCCN=C(N)N)NC(=O)[C@H](Cc1ccc(O)cc1)NC(=O)[C@@H](NC(=O)[C@@H]1CCCN1C(=O)[C@H](CCCCN)NC(=O)[C@H](CC(N)=O)NC(=O)[C@H](CC(N)=O)NC(=O)CN)C(C)C)C(=O)O [GNNKPVYRPQPRPPHPRL],MIC,[18],0.034 µM
same,MIC,[19],0.012 µM
same,MIC,[20],0.034 µM
same,MIC,[21],0.024 µM
same,MIC,[22],0.096 µM
same,MIC,[23],0.031 µM
same,MIC,[24],0.024 µM
same,MIC,[25],0.024 µM
same,MIC,[26],0.034 µM
same,MIC,[27],0.017 µM
same,MIC,[28],0.024 µM
same,MIC,[29],0.048 µM
CC[C@H](C)[C@H](NC(=O)[C@H](CCCCN)NC(=O)[C@H](CCCCN)NC(=O)[C@@H](NC(=O)[C@H](C)NC(=O)[C@H](CCCCN)NC(=O)[C@@H](NC(=O)[C@@H](NC(=O)[C@H](CC(C)C)NC(=O)[C@H](CCCCN)NC(=O)[C@H](C)NC(=O)[C@H](Cc1c[nH]c2ccccc12)NC(=O)CN)[C@@H](C)CC)[C@@H](C)O)[C@@H](C)CC)C(N)=O [GWAKLITKAIKKI],MIC,[30],2.72 µM
same,MIC,[31],10.9 µM
same,MIC,[32],10.9 µM
same,MIC,[33],10.9 µM
same,MIC,[34],10.9 µM
same,MIC,[35],10.9 µM
same,MIC,[36],21.8 µM
same,MIC,[37],21.8 µM
same,MIC,[38],21.8 µM
same,MIC,[39],2.72 µM
same,MIC,[40],5.44 µM
same,MIC,[41],12 µM and 24.1 µM
same,MIC,[42],21.8 µM
same,MIC,[43],21.8 µM
same,MIC,[44],5.44 µM
same,MIC,[45],10.9 µM
same,MIC,[46],2.72 µM
same,MIC,[47],2.72 µM
